In this experiment the target is GST-tagged truncated human mutant G2019S LRRK2 (Homo sapiens (Human), UniProt Q5S007, G2019S). Description: LRRK2 Km ATP LanthaScreen Assay. It counts as biochemical. The settings on record: 134 μM ATP (Km ATP); fluorescein-labeled LRRKtide substrate; mean IC50 values. The protocol: Unless otherwise noted, all LRRK2 IC50 data presented in tables refers to the LRRK2 Km ATP LanthaScreen™ Assay that is described in the Biological Assay section.
GST-tagged truncated human mutant G2019S LRRK2, sequence (Q5S007 970-2527 G2019S): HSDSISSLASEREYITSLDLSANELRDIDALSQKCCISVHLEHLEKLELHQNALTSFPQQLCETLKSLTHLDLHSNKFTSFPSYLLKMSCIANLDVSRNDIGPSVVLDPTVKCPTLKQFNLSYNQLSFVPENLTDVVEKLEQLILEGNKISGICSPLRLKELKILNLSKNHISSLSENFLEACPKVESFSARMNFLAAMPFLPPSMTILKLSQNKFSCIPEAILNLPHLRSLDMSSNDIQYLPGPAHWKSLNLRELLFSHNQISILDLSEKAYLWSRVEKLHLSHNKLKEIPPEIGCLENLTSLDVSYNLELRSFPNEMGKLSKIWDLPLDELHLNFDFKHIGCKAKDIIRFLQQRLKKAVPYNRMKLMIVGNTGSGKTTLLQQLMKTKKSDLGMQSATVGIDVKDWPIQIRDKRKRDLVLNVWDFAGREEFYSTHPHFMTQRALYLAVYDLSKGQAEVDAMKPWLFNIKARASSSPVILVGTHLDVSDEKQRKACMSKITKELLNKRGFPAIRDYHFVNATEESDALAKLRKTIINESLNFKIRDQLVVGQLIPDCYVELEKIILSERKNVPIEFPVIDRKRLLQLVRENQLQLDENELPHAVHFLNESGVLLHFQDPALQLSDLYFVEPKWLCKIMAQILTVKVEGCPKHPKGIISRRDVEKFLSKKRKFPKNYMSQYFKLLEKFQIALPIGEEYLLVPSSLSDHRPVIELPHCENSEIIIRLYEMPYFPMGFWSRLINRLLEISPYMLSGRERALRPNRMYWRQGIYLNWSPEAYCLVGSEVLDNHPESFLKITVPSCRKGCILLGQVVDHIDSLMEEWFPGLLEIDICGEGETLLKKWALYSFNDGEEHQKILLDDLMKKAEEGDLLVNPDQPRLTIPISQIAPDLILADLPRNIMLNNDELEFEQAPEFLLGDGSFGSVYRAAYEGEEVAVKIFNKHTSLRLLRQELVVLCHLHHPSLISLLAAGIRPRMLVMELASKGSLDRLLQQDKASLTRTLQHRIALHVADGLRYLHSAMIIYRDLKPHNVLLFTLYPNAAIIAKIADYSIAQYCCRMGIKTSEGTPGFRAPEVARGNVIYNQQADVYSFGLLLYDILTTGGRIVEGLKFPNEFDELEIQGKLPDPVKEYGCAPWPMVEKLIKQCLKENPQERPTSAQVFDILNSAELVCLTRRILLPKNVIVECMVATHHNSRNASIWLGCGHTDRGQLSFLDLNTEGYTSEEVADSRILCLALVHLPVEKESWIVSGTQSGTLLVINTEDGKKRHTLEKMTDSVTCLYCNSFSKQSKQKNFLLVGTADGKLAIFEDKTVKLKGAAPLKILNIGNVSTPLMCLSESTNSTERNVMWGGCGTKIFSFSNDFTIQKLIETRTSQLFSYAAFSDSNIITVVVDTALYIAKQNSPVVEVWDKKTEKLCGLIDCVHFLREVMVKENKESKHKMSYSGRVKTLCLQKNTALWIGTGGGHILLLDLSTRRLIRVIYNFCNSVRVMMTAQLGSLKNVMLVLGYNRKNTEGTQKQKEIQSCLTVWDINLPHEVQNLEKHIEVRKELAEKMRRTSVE
Biological Assay: LRRK2 Km ATP LanthaScreen™ Assay
The LRRK2 kinase activity reported herein as IC50 values was determined with LanthaScreen™ technology from Life Technologies Corporation (Carlsbad, Calif.) using GST-tagged truncated human mutant G2019S LRRK2 in the presence of the fluorescein-labeled peptide substrate LRRKtide, also from Life Technologies. The data presented for the Km ATP LanthaScreen™ Assay represents mean IC50 values based on several test results and may have reasonable deviations depending on the specific conditions and reagents used. Assays were performed in the presence of 134 μM ATP (Km ATP). Upon completion, the assay was stopped and phosphorylated substrate detected with a terbium (Tb)-labeled anti-pERM antibody (cat. no. PV4898). The compound dose response was prepared by diluting a 10 mM stock of compound to a maximum concentration of 9.99 μM in 100% dimethylsulfoxide followed by custom fold serial dilution in dimethylsulfoxide nine times. Twenty nanoliters of each dilution was spotted via a Labcyte Echo onto a 384-well black-sided plate (Corning 3575) followed by 15 μl of a 1.25 nM enzyme solution in 1× assay buffer (50 mM Tris pH 8.5, 10 mM MgCl2, 0.01% Brij-35, 1 mM EGTA, 2 mM dithiothreitol, 0.05 mM sodium orthovanadate) Following a 15-minute incubation at room temperature, the kinase reaction was started with the addition of 5 μl of 400 nM fluorescein-labeled LRRKtide peptide substrate and 134 μM ATP solution in 1× assay buffer. The reaction was allowed to progress at ambient temperature for 90 minutes. The reaction was then stopped by the addition of 20 μl of TR-FRET Dilution Buffer (Life Technologies, Carlsbad, Calif.) containing 2 nM Tb-labeled anti-phospho LRRKtide antibody and 10 mM EDTA (Life Technologies, Carlsbad, Calif.). After an incubation of 1 hour at room temperature, the plate was read on an EnVision multimode plate reader (Perkin Elmer, Waltham, Mass.) with an excitation wavelength of 337 nm (Laser) and a reading emission at both 520 and 495 nm. Compound IC50s were interpolated from nonlinear regression best fits of the log of the final compound concentration, plotted as a function of the 520/495-nm emission ratio using Activity base. Abase uses a 4 parameter (4P) logistic fit based on the Levenberg-Marquardt algorithm.
In general terms: In TR-FRET formats the signal depends on donor and acceptor labels being close together.
Regarding `CC1C(C(C)(C)O)CCN1c1cc(-n2ncc3ccc(C4(C#N)CC5(CC5)C4)cc32)ncn1` (single isomer, unassigned) [Example 38, 5-(1-(6-(3-(2-hydroxypropan-2-yl)-2-methylpyrrolidin-1-yl)pyrimidin-4-yl)-1H-indazol-6-yl)spiro[2.3]hexane-5-carbonitrile], the IC50 (commonly the point on the concentration scale where inhibition reaches its midpoint) turned out to be 59 nM. In other words, the double-digit nanomolar range. As for `CC(C)(O)C1CN(c2cc(-n3ncc4ccc(C5(C#N)CC6(CC6)C5)cc43)ncn2)CC1F` (single isomer, unassigned) [Example 22, 5-(1-(6-(3-fluoro-4-(2-hydroxypropan-2-yl)pyrrolidin-1-yl)pyrimidin-4-yl)-1H-indazol-6-yl)spiro[2.3]hexane-5-carbonitrile], the IC50 came out at 3.7 nM. Against the preceding molecule, the IC50 is about 16-fold lower. The molecule `N#CC1(c2ccc3cnn(-c4cc(N5CCO[C@H](CO)C5)ncn4)c3c2)CC2(CC2)C1` [Example 14, (S)-5-(1-(6-(2-(hydroxy-methyl)morpholino)pyrimidin-4-yl)-1H-indazol-6-yl)spiro[2.3]hexane-5-carbonitrile] gave an IC50 of 2.9 nM. This IC50 and that of the molecule before are within 1.5-fold of each other. With `N#CC1(c2ccc3cnn(-c4cc(N5CC[C@@H](O)[C@@H](F)C5)ncn4)c3c2)CC2(CC2)C1` [Example 1, 5-(1-(6-((3S,4R)-3-fluoro-4-hydroxypiperidin-1-yl)pyrimidin-4-yl)-1H-indazol-6-yl)spiro[2.3]hexane-5-carbonitrile], the IC50 was 4.4 nM. The molecule `COCc1nc(N2CC3(C(C)(C)O)CC2C3)cc(-n2ncc3ccc(C4(C#N)CC5(CC5)C4)cc32)n1` [Example 20, 5-(1-(6-(4-(2-hydroxypropan-2-yl)-2-azabicyclo[2.1.1]hexan-2-yl)-2-(methoxy-methyl)pyrimidin-4-yl)-1H-indazol-6-yl)spiro[2.3]hexane-5-carbonitrile] gave an IC50 of 16.2 nM. `CC(C)(O)C12CC(C1)N(c1cc(-n3ncc4ccc(C5(C#N)CC6(CC6)C5)cc43)ncn1)C2` [Example 12, 5-(1-(6-(4-(2-hydroxypropan-2-yl)-2-azabicyclo[2.1.1]hexan-2-yl)pyrimidin-4-yl)-1H-indazol-6-yl)spiro[2.3]hexane-5-carbonitrile] registered a half-maximal inhibitory concentration (IC50) of 2.6 nM. This IC50 is about 6.2-fold lower than that of the molecule before.

These data come from US11174248B2, “Indazolyl-spiro[2.3]hexane-carbonitrile derivatives as LRRK2 inhibitors, pharmaceutical compositions, and uses thereof” (Merck Sharp & Dohme Corp., priority 2017, dated 2021).
